Measurements published in patent publication US20250186325A1, “COMPOSITIONS OF ASCORBIC ACID SALTS” (SHISEIDO COMPANY, LTD., priority 2023, published 2025).

Assay: Assay of SAP and AA2G by HPLC (ascorbic acid derivative loss)
Assay type: physicochemical
Conditions: in FL#1, HPLC
Source text: The amount of ascorbic acid derivative content in a composition can be determined using a wide range of techniques including, but not limited to: titrimetric, spectrophotometric, electrochemical, fluorimetric, enzymatic and chromatographic. Methods for determining ascorbic acid derivative content in a topical composition can be complicated/confounded by the presence of excipients or other antioxidant agents (e.g., agents for stabilizing Vitamin C), as well as degradation products. Of the above-listed methods, high performance liquid chromatography may be preferred. See, A M Maia et al., “Validation of HPLC stability-indicating method for Vitamin C in semisolid pharmaceutical/cosmetic preparations . . . ” Talanta Vol. 71, pp. 639-643 (2007).
In addition, an assay of SAP and AA2G were analyzed by HPLC.

% Loss @25° C. (4 weeks) (25° C.): −1.00%
% Loss @37° C. (4 weeks) (37° C.): −1.00%
% Loss @40° C. (4 weeks) (40° C.): −1.00%
% Loss @45° C. (4 weeks) (45° C.): 0%
SMILES: O=C1O[C@H]([C@@H](O)CO)C(O)=C1O[C@H]1O[C@H](CO)[C@@H](O)[C@H](O)[C@H]1O [AA2G, ascorbyl glucoside]
